How the values were obtained:
Assay in all cases: KINOMEscan (ScanMAX) kinase profiling
Assay type in all cases: binding
panel of 468 kinases [1] = target: T1, panel of 468 kinases (Homo sapiens, UniProt O75460); details: ERN1; 1 μM; read-out: % control
T1 construct: purchased KINOMEscan (ScanMAX) service

panel of 468 kinases [2] = target: T2, panel of 468 kinases (Homo sapiens, UniProt P07949); details: RET; 1 μM; read-out: % control
T2 construct: purchased KINOMEscan (ScanMAX) service

panel of 468 kinases [3] = target: T3, panel of 468 kinases (Homo sapiens, UniProt P42336, E542K); details: PIK3CA(E542K); 1 μM; read-out: % control
T3 construct: purchased KINOMEscan (ScanMAX) service

panel of 468 kinases [4] = target: T4, panel of 468 kinases (Homo sapiens, UniProt P78362); details: SRPK2; 1 μM; read-out: % control
T4 construct: purchased KINOMEscan (ScanMAX) service

panel of 468 kinases [5] = target: T5, panel of 468 kinases (Homo sapiens, UniProt Q00536); details: PCTK1; 1 μM; read-out: % control
T5 construct: purchased KINOMEscan (ScanMAX) service

panel of 468 kinases [6] = target: T6, panel of 468 kinases (Homo sapiens, UniProt Q13153); details: PAK1; 1 μM; read-out: % control
T6 construct: purchased KINOMEscan (ScanMAX) service

panel of 468 kinases [7] = target: T7, panel of 468 kinases (Homo sapiens, UniProt Q56UN5); details: YSK4; 1 μM; read-out: % control
T7 construct: purchased KINOMEscan (ScanMAX) service
T7 sequence (Q56UN5 1-1328): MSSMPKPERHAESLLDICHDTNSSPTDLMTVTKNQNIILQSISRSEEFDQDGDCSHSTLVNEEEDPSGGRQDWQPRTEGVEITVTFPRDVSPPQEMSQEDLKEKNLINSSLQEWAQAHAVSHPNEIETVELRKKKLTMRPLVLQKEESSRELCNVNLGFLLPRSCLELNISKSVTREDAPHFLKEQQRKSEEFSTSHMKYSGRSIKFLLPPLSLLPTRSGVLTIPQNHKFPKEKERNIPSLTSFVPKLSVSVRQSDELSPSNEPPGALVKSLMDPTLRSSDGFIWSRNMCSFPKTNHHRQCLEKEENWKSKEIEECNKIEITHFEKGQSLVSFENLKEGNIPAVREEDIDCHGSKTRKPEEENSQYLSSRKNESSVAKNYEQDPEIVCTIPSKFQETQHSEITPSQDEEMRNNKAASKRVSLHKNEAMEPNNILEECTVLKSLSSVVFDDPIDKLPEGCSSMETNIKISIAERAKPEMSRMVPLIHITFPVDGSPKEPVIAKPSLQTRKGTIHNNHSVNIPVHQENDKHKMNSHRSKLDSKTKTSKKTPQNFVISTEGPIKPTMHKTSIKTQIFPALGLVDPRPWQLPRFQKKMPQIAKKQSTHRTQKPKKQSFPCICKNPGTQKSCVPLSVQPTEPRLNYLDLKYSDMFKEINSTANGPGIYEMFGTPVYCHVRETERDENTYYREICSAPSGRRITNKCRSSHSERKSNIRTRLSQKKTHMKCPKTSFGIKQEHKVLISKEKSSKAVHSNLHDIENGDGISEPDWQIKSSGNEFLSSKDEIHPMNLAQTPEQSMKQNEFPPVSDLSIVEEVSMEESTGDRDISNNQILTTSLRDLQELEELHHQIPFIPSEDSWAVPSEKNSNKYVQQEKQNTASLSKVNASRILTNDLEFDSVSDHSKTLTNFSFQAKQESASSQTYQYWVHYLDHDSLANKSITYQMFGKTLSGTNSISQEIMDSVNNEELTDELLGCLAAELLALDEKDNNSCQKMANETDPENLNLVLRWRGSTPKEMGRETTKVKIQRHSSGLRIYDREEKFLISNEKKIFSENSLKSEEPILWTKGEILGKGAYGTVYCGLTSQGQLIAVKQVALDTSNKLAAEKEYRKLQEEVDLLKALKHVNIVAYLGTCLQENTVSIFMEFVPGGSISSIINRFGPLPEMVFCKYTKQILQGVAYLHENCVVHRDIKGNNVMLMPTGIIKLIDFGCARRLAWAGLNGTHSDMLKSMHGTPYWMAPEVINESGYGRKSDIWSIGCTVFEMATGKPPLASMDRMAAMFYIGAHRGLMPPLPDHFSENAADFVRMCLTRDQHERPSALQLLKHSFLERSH

panel of 468 kinases [8] = target: T8, panel of 468 kinases (Homo sapiens, UniProt Q86YV6); details: MYLK4; 1 μM; read-out: % control
T8 construct: purchased KINOMEscan (ScanMAX) service
T8 sequence (Q86YV6 1-388): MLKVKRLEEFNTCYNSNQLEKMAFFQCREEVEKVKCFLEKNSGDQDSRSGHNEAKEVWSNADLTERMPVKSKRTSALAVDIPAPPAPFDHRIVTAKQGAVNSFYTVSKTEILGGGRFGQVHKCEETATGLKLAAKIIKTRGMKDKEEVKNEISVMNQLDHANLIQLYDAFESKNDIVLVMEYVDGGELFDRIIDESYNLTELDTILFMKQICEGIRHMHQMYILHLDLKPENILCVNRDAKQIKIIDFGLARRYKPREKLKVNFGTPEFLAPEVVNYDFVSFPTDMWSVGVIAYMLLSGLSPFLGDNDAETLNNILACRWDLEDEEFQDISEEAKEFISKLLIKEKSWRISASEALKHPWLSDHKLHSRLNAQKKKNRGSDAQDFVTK

panel of 468 kinases [9] = target: T9, panel of 468 kinases (Homo sapiens, UniProt Q8NI60); details: ADCK3; 1 μM; read-out: % control
T9 construct: purchased KINOMEscan (ScanMAX) service

panel of 468 kinases [10] = target: T10, panel of 468 kinases (Homo sapiens, UniProt Q96GD4); details: AURKB; 1 μM; read-out: % control
T10 construct: purchased KINOMEscan (ScanMAX) service
T10 sequence (Q96GD4 whole entry): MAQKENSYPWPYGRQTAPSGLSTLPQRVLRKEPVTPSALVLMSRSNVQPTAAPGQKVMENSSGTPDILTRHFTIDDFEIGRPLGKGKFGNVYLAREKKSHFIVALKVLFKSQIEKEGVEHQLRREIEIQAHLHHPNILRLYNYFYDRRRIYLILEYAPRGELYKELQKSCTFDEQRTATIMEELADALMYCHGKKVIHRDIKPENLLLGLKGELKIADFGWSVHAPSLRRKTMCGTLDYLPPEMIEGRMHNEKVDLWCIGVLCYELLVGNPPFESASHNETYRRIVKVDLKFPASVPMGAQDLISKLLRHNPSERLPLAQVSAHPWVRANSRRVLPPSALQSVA

T6 sequence (Q13153 whole entry): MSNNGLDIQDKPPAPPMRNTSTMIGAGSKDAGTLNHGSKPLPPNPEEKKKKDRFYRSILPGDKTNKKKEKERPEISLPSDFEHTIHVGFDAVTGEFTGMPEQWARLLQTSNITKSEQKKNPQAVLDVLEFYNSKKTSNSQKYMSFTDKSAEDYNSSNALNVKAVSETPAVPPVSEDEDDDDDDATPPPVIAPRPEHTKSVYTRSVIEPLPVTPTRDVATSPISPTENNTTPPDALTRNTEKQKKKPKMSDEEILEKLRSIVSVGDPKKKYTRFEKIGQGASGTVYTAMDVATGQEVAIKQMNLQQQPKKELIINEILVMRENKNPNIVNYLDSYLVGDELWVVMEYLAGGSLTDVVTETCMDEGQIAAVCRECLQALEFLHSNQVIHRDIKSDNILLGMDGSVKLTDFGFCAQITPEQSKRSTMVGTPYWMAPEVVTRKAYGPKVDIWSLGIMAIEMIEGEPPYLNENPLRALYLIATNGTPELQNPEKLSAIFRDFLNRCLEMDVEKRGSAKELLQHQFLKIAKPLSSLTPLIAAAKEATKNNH
T1 sequence (O75460 19-977): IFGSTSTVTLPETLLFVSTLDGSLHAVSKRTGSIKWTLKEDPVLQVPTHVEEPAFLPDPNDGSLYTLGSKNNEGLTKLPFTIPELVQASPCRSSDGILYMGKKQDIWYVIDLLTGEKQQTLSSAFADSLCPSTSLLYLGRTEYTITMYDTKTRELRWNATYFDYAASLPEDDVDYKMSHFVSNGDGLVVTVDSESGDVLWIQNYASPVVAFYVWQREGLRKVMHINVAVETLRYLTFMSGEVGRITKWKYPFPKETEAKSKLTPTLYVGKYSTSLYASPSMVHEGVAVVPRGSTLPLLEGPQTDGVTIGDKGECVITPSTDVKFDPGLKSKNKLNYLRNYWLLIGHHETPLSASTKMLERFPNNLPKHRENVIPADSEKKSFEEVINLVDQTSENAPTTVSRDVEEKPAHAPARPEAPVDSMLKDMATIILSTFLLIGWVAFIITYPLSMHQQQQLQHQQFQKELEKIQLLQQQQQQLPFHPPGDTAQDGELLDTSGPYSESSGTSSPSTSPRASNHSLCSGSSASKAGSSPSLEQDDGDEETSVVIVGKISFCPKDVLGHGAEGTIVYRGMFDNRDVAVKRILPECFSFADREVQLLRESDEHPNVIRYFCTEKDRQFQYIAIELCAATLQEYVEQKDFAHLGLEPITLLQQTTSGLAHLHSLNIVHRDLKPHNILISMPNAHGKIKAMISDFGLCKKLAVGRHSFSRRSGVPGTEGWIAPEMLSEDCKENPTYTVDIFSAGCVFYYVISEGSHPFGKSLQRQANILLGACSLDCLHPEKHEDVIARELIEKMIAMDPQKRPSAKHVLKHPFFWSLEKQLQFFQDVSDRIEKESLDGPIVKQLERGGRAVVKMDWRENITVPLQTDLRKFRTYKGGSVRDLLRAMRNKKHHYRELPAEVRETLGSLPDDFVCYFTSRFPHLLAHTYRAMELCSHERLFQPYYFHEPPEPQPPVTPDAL
T5 sequence (Q00536 whole entry): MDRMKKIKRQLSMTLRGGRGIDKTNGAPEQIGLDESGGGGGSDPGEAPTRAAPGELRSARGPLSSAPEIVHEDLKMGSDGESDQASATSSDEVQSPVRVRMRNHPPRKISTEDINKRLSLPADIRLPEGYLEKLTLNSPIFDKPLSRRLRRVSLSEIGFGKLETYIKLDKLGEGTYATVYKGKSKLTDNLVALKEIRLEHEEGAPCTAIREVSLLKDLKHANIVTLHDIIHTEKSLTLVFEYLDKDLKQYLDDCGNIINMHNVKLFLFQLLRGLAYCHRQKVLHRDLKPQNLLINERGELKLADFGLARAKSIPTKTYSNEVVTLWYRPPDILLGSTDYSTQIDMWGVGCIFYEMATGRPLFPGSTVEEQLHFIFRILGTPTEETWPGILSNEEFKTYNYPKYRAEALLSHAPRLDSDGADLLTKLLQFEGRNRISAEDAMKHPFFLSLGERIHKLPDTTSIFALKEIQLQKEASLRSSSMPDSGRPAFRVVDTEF
T2 sequence (P07949 29-1114): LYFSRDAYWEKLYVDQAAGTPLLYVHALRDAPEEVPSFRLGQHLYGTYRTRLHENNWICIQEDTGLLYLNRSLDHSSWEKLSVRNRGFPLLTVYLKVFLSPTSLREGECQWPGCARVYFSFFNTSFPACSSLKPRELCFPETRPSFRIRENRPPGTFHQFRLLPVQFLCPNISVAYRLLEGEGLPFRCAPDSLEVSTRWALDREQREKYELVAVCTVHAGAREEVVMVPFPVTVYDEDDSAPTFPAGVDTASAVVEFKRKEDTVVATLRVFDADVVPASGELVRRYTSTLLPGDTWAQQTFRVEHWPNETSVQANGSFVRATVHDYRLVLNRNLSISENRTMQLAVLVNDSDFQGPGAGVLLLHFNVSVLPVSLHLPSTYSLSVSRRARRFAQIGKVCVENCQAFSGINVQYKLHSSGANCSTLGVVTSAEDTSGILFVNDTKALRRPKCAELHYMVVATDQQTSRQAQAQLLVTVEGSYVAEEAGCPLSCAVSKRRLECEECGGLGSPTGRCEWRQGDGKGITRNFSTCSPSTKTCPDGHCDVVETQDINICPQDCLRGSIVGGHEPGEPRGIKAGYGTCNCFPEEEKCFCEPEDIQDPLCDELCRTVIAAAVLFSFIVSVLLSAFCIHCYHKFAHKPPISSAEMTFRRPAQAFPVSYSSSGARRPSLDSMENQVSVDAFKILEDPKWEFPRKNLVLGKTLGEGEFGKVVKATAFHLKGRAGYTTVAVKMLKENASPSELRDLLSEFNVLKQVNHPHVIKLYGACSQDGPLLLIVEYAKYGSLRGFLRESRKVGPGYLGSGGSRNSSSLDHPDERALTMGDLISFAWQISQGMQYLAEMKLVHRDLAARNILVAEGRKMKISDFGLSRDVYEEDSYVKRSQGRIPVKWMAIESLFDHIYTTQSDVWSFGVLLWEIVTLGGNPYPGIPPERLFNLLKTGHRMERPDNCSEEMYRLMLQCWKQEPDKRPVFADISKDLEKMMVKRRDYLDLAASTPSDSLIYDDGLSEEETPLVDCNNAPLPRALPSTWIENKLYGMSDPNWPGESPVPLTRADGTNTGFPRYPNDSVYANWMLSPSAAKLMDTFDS
T3 sequence (P42336 whole entry E542K): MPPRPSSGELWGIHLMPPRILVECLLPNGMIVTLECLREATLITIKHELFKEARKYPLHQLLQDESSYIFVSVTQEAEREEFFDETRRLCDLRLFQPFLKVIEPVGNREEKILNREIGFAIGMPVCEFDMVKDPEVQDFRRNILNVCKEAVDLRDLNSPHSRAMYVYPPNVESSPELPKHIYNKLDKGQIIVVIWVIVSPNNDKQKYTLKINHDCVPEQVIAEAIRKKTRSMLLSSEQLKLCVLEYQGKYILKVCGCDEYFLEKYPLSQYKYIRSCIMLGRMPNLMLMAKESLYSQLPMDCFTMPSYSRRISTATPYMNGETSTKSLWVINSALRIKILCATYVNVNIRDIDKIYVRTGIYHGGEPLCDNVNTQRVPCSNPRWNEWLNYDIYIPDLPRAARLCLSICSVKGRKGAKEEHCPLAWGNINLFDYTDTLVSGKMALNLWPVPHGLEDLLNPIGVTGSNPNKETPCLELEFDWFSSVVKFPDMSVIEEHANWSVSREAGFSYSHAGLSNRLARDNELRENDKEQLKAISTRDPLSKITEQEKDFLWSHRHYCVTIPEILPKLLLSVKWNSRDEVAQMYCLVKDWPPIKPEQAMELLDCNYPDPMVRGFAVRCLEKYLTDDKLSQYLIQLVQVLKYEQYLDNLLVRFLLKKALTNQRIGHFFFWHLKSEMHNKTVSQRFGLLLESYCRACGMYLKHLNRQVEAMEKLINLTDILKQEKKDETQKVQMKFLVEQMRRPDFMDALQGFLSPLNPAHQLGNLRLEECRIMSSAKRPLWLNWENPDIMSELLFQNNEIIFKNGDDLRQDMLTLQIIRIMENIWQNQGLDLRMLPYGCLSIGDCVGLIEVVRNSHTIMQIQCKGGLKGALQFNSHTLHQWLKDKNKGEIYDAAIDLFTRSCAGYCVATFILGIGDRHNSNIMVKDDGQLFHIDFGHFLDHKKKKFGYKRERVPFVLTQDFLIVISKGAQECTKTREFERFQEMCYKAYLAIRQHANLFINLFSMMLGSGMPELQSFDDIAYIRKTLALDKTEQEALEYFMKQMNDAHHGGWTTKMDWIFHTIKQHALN
T9 sequence (Q8NI60 163-647): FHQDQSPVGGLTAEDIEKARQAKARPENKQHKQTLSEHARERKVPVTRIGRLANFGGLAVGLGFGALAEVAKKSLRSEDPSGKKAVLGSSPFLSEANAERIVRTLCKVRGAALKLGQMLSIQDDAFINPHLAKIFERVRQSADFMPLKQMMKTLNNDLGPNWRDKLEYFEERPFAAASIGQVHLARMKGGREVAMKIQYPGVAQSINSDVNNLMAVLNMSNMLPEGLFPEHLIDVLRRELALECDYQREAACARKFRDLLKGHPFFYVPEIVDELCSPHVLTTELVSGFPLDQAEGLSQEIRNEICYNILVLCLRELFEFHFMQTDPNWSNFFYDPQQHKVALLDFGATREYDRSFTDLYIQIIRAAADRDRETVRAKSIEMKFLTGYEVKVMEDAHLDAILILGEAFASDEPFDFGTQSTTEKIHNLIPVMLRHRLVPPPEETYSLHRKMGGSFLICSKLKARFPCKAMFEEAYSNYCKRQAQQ

SMILES	remaining binding at 1 µM (panel of 468 kinases [1]) [%]	remaining binding at 1 µM (panel of 468 kinases [2]) [%]	remaining binding at 1 µM (panel of 468 kinases [3]) [%]	remaining binding at 1 µM (panel of 468 kinases [4]) [%]	remaining binding at 1 µM (panel of 468 kinases [5]) [%]	remaining binding at 1 µM (panel of 468 kinases [6]) [%]	remaining binding at 1 µM (panel of 468 kinases [7]) [%]	remaining binding at 1 µM (panel of 468 kinases [8]) [%]	remaining binding at 1 µM (panel of 468 kinases [9]) [%]	remaining binding at 1 µM (panel of 468 kinases [10]) [%]
CNc1nc(Nc2ccc(S(=O)(=O)N3CCC(N4CCOCC4)CC3)cc2OC)nc2[nH]cc(Cl)c12 [Compound 12, 5-chloro-N2-(2-methoxy-4-((4-morpholinopiperidin-1-yl)sulfonyl)phenyl)-N4-methyl-7H-pyrrolo[2,3-d]pyrimidine-2,4-diamine]	67	100	65	100	64	100	59	100	100	73
CNc1nc(Nc2ccc(P3(=O)CCN(C4CCOCC4)CC3)cc2OC)nc2[nH]cc(Cl)c12 [Compound 77, 4-(4-((5-chloro-4-(methylamino)-7H-pyrrolo[2,3-d]pyrimidin-2-yl)amino)-3-methoxyphenyl)-1-(tetrahydro-2H-pyran-4-yl)-1,4-azaphosphinane 4-oxide]	60	100	67	84	84	100	4.2	64	100	74
CNc1nc(Nc2ccc(C(=O)N3CCC(N4CCOCC4)CC3)c3c2OCO3)nc2[nH]cc(Cl)c12 [Compound 75, (7-((5-chloro-4-(methylamino)-7H-pyrrolo[2,3-d]pyrimidin-2-yl)amino)benzo[d][1,3]dioxol-4-yl)(4-morpholinopiperidin-1-yl)methanone]	73	100	78	95	60	100	0.25	100	100	57

From US12479847B2 (DANA-FARBER CANCER INSTITUTE, INC., priority 2019, dated 2025)
